For this assay, the target named is T1, human TLR7 (Homo sapiens, UniProt Q9NYK1).
T1 construct: host or cells: HEK-Blue cells
T1 sequence (Q9NYK1 27-1049): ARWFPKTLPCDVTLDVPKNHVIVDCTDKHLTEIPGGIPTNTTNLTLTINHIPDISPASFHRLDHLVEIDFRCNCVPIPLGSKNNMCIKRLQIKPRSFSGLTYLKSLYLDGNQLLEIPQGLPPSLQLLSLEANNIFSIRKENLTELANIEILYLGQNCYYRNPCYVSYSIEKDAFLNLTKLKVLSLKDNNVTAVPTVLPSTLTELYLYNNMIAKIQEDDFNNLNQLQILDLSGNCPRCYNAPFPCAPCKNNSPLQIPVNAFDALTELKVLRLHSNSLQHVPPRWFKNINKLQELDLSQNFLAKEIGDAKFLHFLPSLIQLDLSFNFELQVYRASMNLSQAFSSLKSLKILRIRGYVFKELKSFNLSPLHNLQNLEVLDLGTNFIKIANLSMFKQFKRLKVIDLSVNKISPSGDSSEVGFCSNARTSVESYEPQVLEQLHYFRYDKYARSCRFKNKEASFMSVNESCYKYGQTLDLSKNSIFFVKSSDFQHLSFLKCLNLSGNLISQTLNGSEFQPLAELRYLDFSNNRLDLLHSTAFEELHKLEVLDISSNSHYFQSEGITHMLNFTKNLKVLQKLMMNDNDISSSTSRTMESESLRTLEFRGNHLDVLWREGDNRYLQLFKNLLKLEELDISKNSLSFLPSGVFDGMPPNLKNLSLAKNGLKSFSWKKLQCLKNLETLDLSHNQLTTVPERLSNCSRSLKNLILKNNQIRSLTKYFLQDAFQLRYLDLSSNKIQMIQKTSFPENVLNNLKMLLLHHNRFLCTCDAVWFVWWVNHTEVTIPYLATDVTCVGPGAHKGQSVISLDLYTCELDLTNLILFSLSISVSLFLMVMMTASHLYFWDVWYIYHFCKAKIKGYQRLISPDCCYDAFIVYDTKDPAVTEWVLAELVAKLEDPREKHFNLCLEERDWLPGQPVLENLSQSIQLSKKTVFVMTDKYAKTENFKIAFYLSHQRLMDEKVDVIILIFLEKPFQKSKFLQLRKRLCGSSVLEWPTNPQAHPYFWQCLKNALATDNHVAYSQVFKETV
Kind of assay: TLR7 inhibition reporter assay (HEK-Blue cells, SEAP reporter). The assay is classed as cell-based. Conditions: HEK-Blue cells overexpressing human TLR7, stimulated with gardiquimod 7.5 μM, 22 hour incubation. The essentials: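 Compound treatment: 30 min, RT, 0.05 nM–50 μM final. Agonist: TLR7 gardiquimod 7.5 μM; TLR8 R848 15.9 μM; TLR9 ODN2006 5 nM. Incubation 22 h, 37 °C, 5% CO2. Readout SEAP, HEK-Blue Detection.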

`Cc1nc(-c2ccc(C3(O)CCN(C(C)C)CC3)c(F)c2)cc2c1cc(-c1ccc(S(C)(=O)=O)cc1)n2C` [Example 107, 4-(4-(1,4-dimethyl-2-(4-(methylsulfonyl)phenyl)-1H-pyrrolo[3,2-c]pyridin-6-yl)-2-fluorophenyl)-1-isopropylpiperidin-4-ol] returned an IC50 of 2.1 µM. Under `Cc1nc(-c2ccc(C3(O)CCN(C(C)(C)C)CC3)cc2F)cc2c1cc(-c1ccc(S(C)(=O)=O)cc1)n2C` [Example 108, 1-(tert-butyl)-4-(4-(1,4-dimethyl-2-(4-(methylsulfonyl)phenyl)-1H-pyrrolo[3,2-c]pyridin-6-yl)-3-fluorophenyl)piperidin-4-ol] stands 1.7 µM; under `Cc1nc(-c2ccc(C3(O)CCN(C(C)C)CC3)cc2F)cc2c1cc(-c1ccc(S(C)(=O)=O)cc1)n2C` [Example 109, 4-(4-(1,4-dimethyl-2-(4-(methylsulfonyl)phenyl)-1H-pyrrolo[3,2-c]pyridin-6-yl)-3-fluorophenyl)-1-isopropylpiperidin-4-ol], 1.3 µM; under `Cc1nc(C2CCN(C3CC4CCC(C3)N4CC(C)C)CC2)cc2c1cc(-c1ccc(S(C)(=O)=O)cc1)n2C` (stereo not drawn) [Example 114, 6-(1-(8-isobutyl-8-azabicyclo[3.2.1]octan-3-yl)piperidin-4-yl)-1,4-dimethyl-2-(4-(methylsulfonyl)phenyl)-1H-pyrrolo[3,2-c]pyridine], 14.2 µM. `Cc1nc(-c2ccc(CN3CCN(CCC(C)(C)O)CC3)cc2)cc2c1c(F)c(-c1ccc(S(C)(=O)=O)cc1)n2C` [Example 115, 4-(4-(4-(3-fluoro-1,4-dimethyl-2-(4-(methylsulfonyl)phenyl)-1H-pyrrolo[3,2-c]pyridin-6-yl)benzyl)piperazin-1-yl)-2-methylbutan-2-ol]: the IC50 was 16 µM.

On to `Cc1nc(-c2ccc(CN3CCN(CCC(C)(C)O)CC3)cc2)cc2c1cc(-c1ccc(S(C)(=O)=O)cc1)n2C1CC1` [Example 116, 4-[4-[[4-[1-cyclopropyl-4-methyl-2-(4-methylsulfonylphenyl)pyrrolo[3,2-c]pyridin-6-yl]phenyl]methyl]piperazin-1-yl]-2-methyl-butan-2-ol], for which the concentration for half-maximal inhibition (IC50) came out at 3.2 µM. Compound `CC(C)N1CCN(c2ccc(-c3cc4c(cc(-c5ccc(S(C)(=O)=O)cc5)n4C)c(C(C)(C)O)n3)cc2)CC1` [Example 118, 2-[6-[4-(4-isopropylpiperazin-1-yl)phenyl]-1-methyl-2-(4-methylsulfonylphenyl)pyrrolo[3,2-c]pyridin-4-yl]propan-2-ol] registered an IC50 of 1.7 µM. Under `CC(C)(O)CN1C2CCC1CN(Cc1ccc(-c3cc4c(cn3)cc(-c3ccc(S(C)(=O)=O)cc3)n4C3CC3)cc1)C2` [Example 121, 1-[3-[[4-[1-cyclopropyl-2-(4-methylsulfonylphenyl)pyrrolo[3,2-c]pyridin-6-yl]phenyl]methyl]-3,8-diazabicyclo[3.2.1]octan-8-yl]-2-methyl-propan-2-ol] stands 0.6 µM; under `Cc1nc(-c2ccc(CN3CCN(CC(C)(C)O)CC3)cc2)cc2c1c(F)c(-c1ccc(S(C)(=O)=O)cc1)n2C` [Example 122, 1-(4-(4-(3-fluoro-1,4-dimethyl-2-(4-(methylsulfonyl)phenyl)-1H-pyrrolo[3,2-c]pyridin-6-yl)benzyl)piperazin-1-yl)-2-methylpropan-2-ol], 17.1 µM; under `Cc1nc(-c2ccc(CN3CCN(CC(C)(C)O)CC3)cc2)cc2c1cc(-c1ccc(S(C)(=O)=O)cc1)n2C1CC1` [Example 123, 1-(4-(4-(1-cyclopropyl-4-methyl-2-(4-(methylsulfonyl)phenyl)-1H-pyrrolo[3,2-c]pyridin-6-yl)benzyl)piperazin-1-yl)-2-methylpropan-2-ol], 3.7 µM. The result for `Cc1nc(-c2ccc(CN3CCN(CC(C)(C)O)CC3)cc2)cc2c1cc(-c1ccc(S(C)(=O)=O)cc1)n2C(F)F` [Example 124, 1-(4-(4-(1-(difluoromethyl)-4-methyl-2-(4-(methylsulfonyl)phenyl)-1H-pyrrolo[3,2-c]pyridin-6-yl)benzyl)piperazin-1-yl)-2-methylpropan-2-ol] reads > 50 µM; that for `CC(C)N1CCN(Cc2ccc(-c3cc4c(cc(-c5ccc(S(C)(=O)=O)cc5)n4C)c(C(C)(C)O)n3)cc2)CC1` [Example 125, 2-(6-(4-((4-isopropylpiperazin-1-yl)methyl)phenyl)-1-methyl-2-(4-(methylsulfonyl)phenyl)-1H-pyrrolo[3,2-c]pyridin-4-yl)propan-2-ol], 3.1 µM; that for `CC(C)(O)CN1CCN(Cc2ccc(-c3cc4c(cn3)cc(-c3ccc(S(C)(=O)=O)cc3)n4C3CC3)cc2)CC1` [Example 128, 1-(4-(4-(1-cyclopropyl-2-(4-(methylsulfonyl)phenyl)-1H-pyrrolo[3,2-c]pyridin-6-yl)benzyl)piperazin-1-yl)-2-methylpropan-2-ol], 2.8 µM. `CC(C)(O)CCN1CCN(Cc2ccc(-c3cc4c(cn3)cc(-c3ccc(S(C)(=O)=O)cc3)n4C3CC3)cc2)CC1` [Example 129, 4-(4-(4-(1-cyclopropyl-2-(4-(methylsulfonyl)phenyl)-1H-pyrrolo[3,2-c]pyridin-6-yl)benzyl)piperazin-1-yl)-2-methylbutan-2-ol] yielded an IC50 of 3.6 µM. The result for `CC(C)(O)CN1CC2CCC(C1)N2Cc1ccc(-c2cc3c(cn2)cc(-c2ccc(S(C)(=O)=O)cc2)n3C2CC2)cc1` [Example 130, 1-(8-(4-(1-cyclopropyl-2-(4-(methylsulfonyl)phenyl)-1H-pyrrolo[3,2-c]pyridin-6-yl)benzyl)-3,8-diazabicyclo[3.2.1]octan-3-yl)-2-methylpropan-2-ol] reads 1.9 µM.

As usually defined, the IC50 is the concentration needed to halve the response being measured. A high value points to weaker potency.

The values above are taken from patent publication US12590091B2, “1H-pyrrolo[3,2-C]pyridine and 1H-pyrrolo[2,3-C]pyridine derivatives as TLR9 inhibitors for the treatment of fibrosis” (BRISTOL-MYERS SQUIBB COMPANY, priority 2020, dated 2026).
